In patent US4324728A, “Compound nanaomycin A and derivatives thereof and a process for producing the same” (The Kitasato Institute, priority 1976, dated 1982):
≈ marks a conversion by molar mass, not a printed value. Where two headings read alike, the source gives them in different places.

Key:
[1] = system: Staphylococcus aureus FDA 209P; experiment: Minimal inhibitory concentration (agar); format: cell-based; conditions: FDA209P, 48 h, nutrient agar, pH 7.0, 2 days, 37° C.
[2] = system: Sarcina lutea PCI 1001; experiment: Minimal inhibitory concentration (agar); format: cell-based; conditions: pH 7.0, 2 days, 37° C.
Procedure: (§1) Medium N nutrient agar (pH 7.0, 2 days, 37° C.)
(§2) MIC Minimal inhibitory concentration
N nutrient agar (pH 7.0, 2 days, 37° C.)

[3] = system: Trichophyton mentagrophytes; experiment: Minimal inhibitory concentration (agar); format: cell-based; conditions: 96 h, pH 6.4, potato agar, pH 6.4, 4 days, 27° C.
[4] = system: mycoplasmas; experiment: Antimycoplasma activity (in words); format: cell-based
[5] = system: parasite of the genus Tricophyton; experiment: Therapeutic effect on infectious diseases in guinea pigs and cattle; format: in vivo; conditions: concentration 0.01-1%
Procedure: When dermatomycosis of cattle caused by mass infection of Trichophyton verrucosum is treated with nanaomycin A, nanaomycin A is dissolved or suspended in a suitable carrier, for example, olive oil, and is coated on the affected part directly with or without removal of the scales. […] The results obtained by once-coating of nanaomycin A and by twice-coating (the second coating is carried out a week after the first coating) are shown in Tables 2 and 3, respectively.

[6] = system: Mycobacterium smegmatis; experiment: Minimal inhibitory concentration (agar); format: cell-based; conditions: Mycolicibacterium smegmatis, 48 h; nutrient agar, pH 7.0, 2 days, 37° C.
Procedure: as §1, §2

[7] = system: Klebsiella pneumoniae PCI 602; experiment: Minimal inhibitory concentration (agar); format: cell-based; conditions: PCI602, 48 h, nutrient agar, pH 7.0, 2 days, 37° C.
[8] = system: Xanthomonas oryzae N-5824; experiment: microbe, parasite or virus in culture; format: cell-based; conditions: N5824, 48 h, pH 7
[9] = system: Aspergillus fumigatus IAM 2612; experiment: Minimal inhibitory concentration (agar); format: cell-based; conditions: IAM2612, 96 h, potato agar, pH 6.4, 4 days, 27° C.
Procedure: P potato agar (pH 6.4, 4 days, 27° C.)
as §2

[10] = system: Acholeplasma laidlawii (B) Bml; experiment: Minimal inhibitory concentration (PPLO agar); format: cell-based; conditions: 192 h, pH 7.8, 8 days, 37° C.
Procedure: (§3) H Hokken PPLO agar (pH 7.8, 8 days, 37° C.)
(§4) E Eiken PPLO agar (pH 7.8, 8 days, 37° C.)
as §2

[11] = system: Mycoplasma gallisepticum 333P (Spiramycin resistant); experiment: Minimal inhibitory concentration (PPLO agar); format: cell-based
Procedure: as §3, §4, §2

[12] = system: Mycoplasma gallisepticum KP-13; experiment: Minimal inhibitory concentration (PPLO agar); format: cell-based; conditions: Mycoplasmoides gallisepticum, KP13, 192 h, pH 7.8, 8 days, 37° C.
Procedure: as §3, §4, §2

[13] = system: Aspergillus fumigatus; experiment: Minimal inhibitory concentration (agar dilution method); format: cell-based; conditions: Aspergillus fumigatus, 96 h; potato agar, pH 6.4, 27° C., 4 days; read-out: Minimal Inhibitory Con.
Procedure: (§5) Minimal inhibitory concentration was assayed by agar dilution method
(§6) (potato agar, pH 6.4, 27° C., 4 days).

[14] = system: Microsporum gypseum; experiment: as above; format: cell-based; conditions: Nannizzia gypsea, 96 h; potato agar, pH 6.4, 27° C., 4 days; read-out: Minimal Inhibitory Con.
Procedure: as §5, §6

[15] = system: mycoplasma; experiment: Antimycoplasma activity, paper disc method; format: cell-based
Procedure: Inhibitory zone is assayed by paper disc method (Eiken PPLO agar, pH 7.8,
Nanaomycin A and derivatives thereof according to the present invention are assayed in a similar manner to that designated as the paper disc method by Itoh, et al [J. of Antibiotics, 24, 855-859 (1971)], for example, as follows: […]

[16] = system: Trichophyton verrucosum; experiment: Treatment of dermatomycosis of cattle; format: in vivo; set-up: key: +++: complete removal of scales and; ++: a little scales remained; +: removal of a part of scales; -: no removal of scale and no recovery
Procedure: When dermatomycosis of cattle caused by mass infection of Trichophyton verrucosum is treated with nanaomycin A, nanaomycin A is dissolved or suspended in a suitable carrier, for example, olive oil, and is coated on the affected part directly with or without removal of the scales. […] The results obtained by once-coating of nanaomycin A and by twice-coating (the second coating is carried out a week after the first coating) are shown in Tables 2 and 3, respectively. | I : direct coating on affected part | II : coating after removing the scales of affected | Con. : concentration of agent

[17] = Micrococcus luteus, PCI1001, 48 h, pH 7, nutrient agar, read-out: MIC
[18] = once-coating, I direct coating, 0.1 mg/ml
[19] = once-coating, I direct coating, 1 mg/ml
[20] = once-coating, I direct coating, 10 mg/ml
[21] = once-coating, II after removing scales, 0.1 mg/ml
[22] = once-coating, II after removing scales, 1 mg/ml
[23] = once-coating, II after removing scales, 10 mg/ml
[24] = twice-coating, I direct coating, 0.1 mg/ml
[25] = twice-coating, I direct coating, 1 mg/ml
[26] = twice-coating, I direct coating, 10 mg/ml
[27] = twice-coating, II after removing scales, 0.1 mg/ml
[28] = twice-coating, II after removing scales, 1 mg/ml
[29] = twice-coating, II after removing scales, 10 mg/ml

CC(=O)Oc1cccc2c1C(=O)C1=C(CC(CC(=O)O)OC1C)C2=O (stereo not shown) [Acetylnanaomycin A, acetylnanaomycin A]
MIC [1]: 1.6 µg/mL (≈ 4.65 µM) | MIC [2, 17]: 1.6 µg/mL (≈ 4.65 µM) | MIC [3]: 0.4 µg/mL (≈ 1.16 µM) | activity against mycoplasma(s) [4]: as strong activity against fungi and mycoplasmas as nanaomycin A | therapeutic effect on Trichophyton infectious diseases [5]: superior therapeutic effect to nanaomycin A

CC1OC(CC(=O)O)CC2=C1C(=O)c1c(O)cccc1C2=O (stereo not shown) [Nanaomycin A, nanaomycin A]
MIC [1]: 3.9 µg/mL (≈ 12.9 µM) | MIC [2, 17]: 1.6 µg/mL (≈ 5.29 µM) | MIC ([2]; nutrient agar): 2.0 µg/mL (≈ 6.62 µM) | MIC [6]: 62.5 µg/mL (≈ 207 µM) | MIC [7]: 31.3 µg/mL (≈ 104 µM) | MIC [8]: 62.5 µg/mL (≈ 207 µM) | MIC [9]: 12.5 µg/mL (≈ 41.4 µM) | MIC ([10]; pH 7.8, Eiken PPLO agar): > 25 µg/mL | MIC ([10]; pH 7.8, Hokken PPLO agar): 25 µg/mL (≈ 82.7 µM) | MIC ([11]; Eiken PPLO agar, pH 7.8, 8 days, 37° C.): < 0.013 µg/mL | MIC ([11]; Mycoplasmoides gallisepticum, 192 h, pH 7.8): < 0.013 µg/mL | activity against spiramycin-resistant Mycoplasma gallisepticum ([11]; in words): strong activity | MIC ([12]; pH 7.8, Eiken PPLO agar): 0.05 µg/mL (≈ 0.165 µM) | MIC ([12]; pH 7.8, Hokken PPLO agar): < 0.013 µg/mL | MIC [13]: 6.3 µg/mL (≈ 20.8 µM) | MIC [14]: 0.8 µg/mL (≈ 2.65 µM) | zone of inhibition at 10 µg/mL ([15]; Mycoplasma, 24 h, 10 μg/ml, Eiken PPLO agar, pH 7.8, 37° C., 1 day, read-out: Inhibitory Zone): 20.4 mm | zone of inhibition at 100 µg/mL ([15]; Mycoplasma, 24 h, 100 μg/ml, Eiken PPLO agar, pH 7.8, 37° C., 1 day, read-out: Inhibitory Zone): 28.7 mm | antimycoplasma activity compared with deoxyfrenolicin and ethylkalafunginate ([15]; paper disc, Table 5): superior to those of deoxyfrenolicin and ethylkalafunginate | Result after 1 week [16, 18]: ++ | Result after 2 weeks [16, 18]: ++ | Result after 3 weeks [16, 18]: +++ | Result after 4 weeks [16, 18]: +++ | Result after 1 week [16, 19]: +++ | Result after 2 weeks [16, 19]: +++ | Result after 3 weeks [16, 19]: +++ | Result after 4 weeks [16, 19]: +++ | Result after 1 week [16, 20]: +++ | Result after 2 weeks [16, 20]: +++ | Result after 3 weeks [16, 20]: +++ | Result after 4 weeks [16, 20]: +++ | Result after 1 week [16, 21]: +++ | Result after 2 weeks [16, 21]: +++ | Result after 3 weeks [16, 21]: +++ | Result after 4 weeks [16, 21]: +++ | Result after 1 week [16, 22]: +++ | Result after 2 weeks [16, 22]: +++ | Result after 3 weeks [16, 22]: +++ | Result after 4 weeks [16, 22]: +++ | Result after 1 week [16, 23]: +++ | Result after 2 weeks [16, 23]: +++ | Result after 3 weeks [16, 23]: +++ | Result after 4 weeks [16, 23]: +++ | Result after 1 week [16, 24]: ++ | Result after 2 weeks [16, 24]: +++ | Result after 3 weeks [16, 24]: +++ | Result after 4 weeks [16, 24]: +++ | Result after 1 week [16, 25]: ++ | Result after 2 weeks [16, 25]: ++ | Result after 3 weeks [16, 25]: +++ | Result after 4 weeks [16, 25]: +++ | Result after 1 week [16, 26]: +++ | Result after 2 weeks [16, 26]: +++ | Result after 3 weeks [16, 26]: +++ | Result after 4 weeks [16, 26]: +++ | Result after 1 week [16, 27]: +++ | Result after 2 weeks [16, 27]: +++ | Result after 3 weeks [16, 27]: +++ | Result after 4 weeks [16, 27]: +++ | Result after 1 week [16, 28]: +++ | Result after 2 weeks [16, 28]: +++ | Result after 3 weeks [16, 28]: +++ | Result after 4 weeks [16, 28]: +++ | Result after 1 week [16, 29]: +++ | Result after 2 weeks [16, 29]: +++ | Result after 3 weeks [16, 29]: +++ | Result after 4 weeks [16, 29]: +++ | activity against mycoplasma(s) [4]: high activity
